From patent US20260250325A1, “Antiviral Polypeptide Membrane Fusion Inhibitor, and Preparation Method and Application Thereof” (priority 2025, published 2026)
Where a SMILES comes first, the peptide text is derived from it. The star is where a group is joined. Succinyl(4-O-cholesteryl) = CC(C)CCC[C@@H](C)[C@H]1CC[C@H]2[C@@H]3CC=C4C[C@@H](OC(=O)CCC(=O)*)CC[C@]4(C)[C@H]3CC[C@]12C

Tests used:
[1] = Cytotoxicity test in HEp-2 cells (CCK8 cell viability); format: cell-based; details: human; HEp-2 cells, CCK8, 1 day; read-out: CC50
In short: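 HEp-2 cells seeded at 30,000/well, cultured overnight at 37° C./5% CO2, then exposed to diluted compound for 1 day in 0.5% DMSO. Viability read by CCK8, normalised to untreated-cell and medium-only controls; CC50 from four-parameter variable-slope fit.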

[2] = tested on: RSV A long virus strain; format: cell-based; details: RSV A long virus strain, HEp-2 cells, plaque reduction, 1 day; read-out: IC50
In short: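 HEp-2 cells (30000/well) infected with 100 PFU virus premixed 1 h with compound (8 concentrations, duplicate); after 2 h adsorption, cultured 1 day at 37 °C under 0.8% CMC overlay with compound. Plaques immunostained (RSV antibody, TrueBlue) and counted; IC50 and CC50 by non-linear fitting of % inhibition versus virus and cell controls.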

| Structure (SMILES) | CC50 at 1 day [1] [nM] | IC50 [2] [nM] |
| --- | --- | --- |
| CC[C@H](C)[C@H](NC(=O)[C@H](CCCCN)NC(=O)[C@H](CCC(=O)O)NC(=O)[C@H](CC(C)C)NC(=O)[C@H](CO)NC(=O)[C@H](CCC(N)=O)NC(=O)[C@H](CC(N)=O)NC(=O)[C@@H](NC(=O)[C@H](CCCCN)NC(=O)[C@H](CCC(=O)O)NC(=O)[C@H](CC(N)=O)NC(=O)[C@@H](NC(=O)[C@H](CCC(N)=O)NC(=O)[C@H](CO)NC(=O)[C@H](C)NC(=O)[C@H](CC(=O)O)NC(=O)[C@H](Cc1ccccc1)NC(=O)[C@@H](NC(=O)[C@H](CC(C)C)NC(=O)[C@H](CCC(=O)O)NC(=O)[C@H](CC(=O)O)NC(=O)[C@H](Cc1ccc(O)cc1)NC(C)=O)C(C)C)C(C)C)[C@@H](C)CC)C(=O)N[C@@H](CCCNC(=N)N)C(=O)N[C@@H](CCCCN)C(=O)N[C@@H](CO)C(=O)N[C@@H](CC(=O)O)C(=O)N[C@@H](CCC(=O)O)C(=O)N[C@@H](CC(C)C)C(=O)N[C@@H](CC(C)C)C(=O)N[C@@H](Cc1c[nH]cn1)C(=O)N[C@@H](CC(N)=O)C(=O)N[C@H](C(=O)N[C@@H](CCC(=O)O)C(=O)N[C@@H](C)C(=O)N[C@@H](C)C(=O)N[C@@H](C)C(=O)N[C@@H](CCCCN)C(=O)N[C@@H](CCCCNC(=O)CCC(=O)O[C@H]1CC[C@@]2(C)C(=CC[C@H]3[C@@H]4CC[C@H]([C@H](C)CCCC(C)C)[C@@]4(C)CC[C@@H]32)C1)C(N)=O)C(C)C [Compound 30] (Ac-YDELVFDASQVNEKINQSLEKIRKSDELLHNVEAAAKK(Succinyl(4-O-cholesteryl))-NH2) | 6200 | 14.9 |
| CC[C@H](C)[C@H](NC(=O)[C@H](CCCCN)NC(=O)[C@H](CCCCN)NC(=O)[C@H](CC(C)C)NC(=O)[C@H](CO)NC(=O)[C@H](CCC(=O)O)NC(=O)[C@H](CCC(=O)O)NC(=O)[C@@H](NC(=O)[C@H](CCCCN)NC(=O)[C@H](CCCCN)NC(=O)[C@H](CC(N)=O)NC(=O)[C@@H](NC(=O)[C@H](CCC(=O)O)NC(=O)[C@H](CCC(=O)O)NC(=O)[C@@H](NC(=O)[C@H](CCCCN)NC(=O)[C@H](CCCCN)NC(=O)[C@H](CC(=O)O)NC(=O)[C@H](Cc1ccccc1)NC(=O)[C@H](CCC(=O)O)NC(=O)[C@H](CC(=O)O)NC(=O)[C@H](Cc1c[nH]c2ccccc12)NC(C)=O)[C@@H](C)CC)C(C)C)[C@@H](C)CC)C(=O)N[C@@H](CCC(=O)O)C(=O)N[C@@H](CCC(=O)O)C(=O)N[C@@H](CO)C(=O)N[C@@H](CC(=O)O)C(=O)N[C@@H](CCCCN)C(=O)N[C@@H](CCCCN)C(=O)N[C@@H](CC(C)C)C(=O)N[C@@H](CCC(=O)O)C(=O)N[C@@H](CCC(=O)O)C(=O)N[C@H](C(=O)N[C@@H](CC(N)=O)C(=O)N[C@@H](C)C(=O)N[C@@H](CCC(=O)O)C(=O)N[C@@H](C)C(=O)N[C@@H](C)C(=O)N[C@@H](C)C(=O)N[C@@H](CCCCN)C(=O)N[C@@H](CCCCNC(=O)CCC(=O)O[C@H]1CC[C@@]2(C)C(=CC[C@H]3[C@@H]4CC[C@H]([C@H](C)CCCC(C)C)[C@@]4(C)CC[C@@H]32)C1)C(N)=O)C(C)C [Compound 40] (Ac-WDEFDKKIEEVNKKIEESLKKIEESDKKLEEVNAEAAAKK(Succinyl(4-O-cholesteryl))-NH2) | 13000 | 11.7 |
| CC[C@H](C)[C@H](NC(=O)[C@H](CCCCN)NC(=O)[C@H](CCCCN)NC(=O)[C@H](CC(C)C)NC(=O)[C@H](CO)NC(=O)[C@H](CCC(=O)O)NC(=O)[C@H](CCC(=O)O)NC(=O)[C@@H](NC(=O)[C@H](CCCCN)NC(=O)[C@H](CCCCN)NC(=O)[C@H](CC(N)=O)NC(=O)[C@@H](NC(=O)[C@H](CCC(=O)O)NC(=O)[C@H](CCC(=O)O)NC(=O)[C@@H](NC(=O)[C@H](CCCCN)NC(=O)[C@H](CCCCN)NC(=O)[C@H](CC(=O)O)NC(=O)[C@H](Cc1ccccc1)NC(=O)[C@H](CCC(=O)O)NC(=O)[C@H](CC(=O)O)NC(=O)[C@H](Cc1c[nH]c2ccccc12)NC(C)=O)[C@@H](C)CC)C(C)C)[C@@H](C)CC)C(=O)N[C@@H](CCC(=O)O)C(=O)N[C@@H](CCC(=O)O)C(=O)N[C@@H](CO)C(=O)N[C@@H](CC(=O)O)C(=O)N[C@@H](CCCCN)C(=O)N[C@@H](CCCCN)C(=O)N[C@@H](CC(C)C)C(=O)N[C@@H](CCC(=O)O)C(=O)N[C@@H](CCC(=O)O)C(=O)N[C@H](C(=O)N[C@@H](CC(N)=O)C(=O)N[C@@H](CCC(=O)O)C(=O)N[C@@H](C)C(=O)N[C@@H](C)C(=O)N[C@@H](C)C(=O)N[C@@H](CCCCN)C(=O)N[C@@H](CCCCNC(=O)CCC(=O)O[C@H]1CC[C@@]2(C)C(=CC[C@H]3[C@@H]4CC[C@H]([C@H](C)CCCC(C)C)[C@@]4(C)CC[C@@H]32)C1)C(N)=O)C(C)C [Compound 41] (Ac-WDEFDKKIEEVNKKIEESLKKIEESDKKLEEVNEAAAKK(Succinyl(4-O-cholesteryl))-NH2) | 17000 | 14.8 |
| CC[C@H](C)[C@H](NC(=O)[C@H](CO)NC(=O)[C@H](C)NC(=O)[C@H](CC(=O)O)NC(=O)[C@H](Cc1ccccc1)NC(C)=O)C(=O)N[C@@H](CCC(=O)O)C(=O)N[C@@H](CCC(=O)O)C(=O)N[C@H](C(=O)N[C@@H](CC(N)=O)C(=O)N[C@@H](CCCNC(=N)N)C(=O)N[C@@H](CCCNC(=N)N)C(=O)N[C@H](C(=O)N[C@@H](CCC(=O)O)C(=O)N[C@@H](CCC(=O)O)C(=O)N[C@@H](CO)C(=O)N[C@@H](CC(C)C)C(=O)N[C@@H](CCCNC(=N)N)C(=O)N[C@@H](CCCNC(=N)N)C(=O)N[C@H](C(=O)N[C@@H](CCC(=O)O)C(=O)N[C@@H](CCC(=O)O)C(=O)N[C@@H](CO)C(=O)N[C@@H](CC(=O)O)C(=O)N[C@@H](CCCNC(=N)N)C(=O)N[C@@H](CCCNC(=N)N)C(=O)N[C@@H](CC(C)C)C(=O)N[C@@H](CCC(=O)O)C(=O)N[C@@H](CCC(=O)O)C(=O)N[C@H](C(=O)N[C@@H](CC(N)=O)C(=O)N[C@@H](C)C(=O)N[C@@H](CCC(=O)O)C(=O)N[C@@H](C)C(=O)N[C@@H](C)C(=O)N[C@@H](C)C(=O)N[C@@H](CCCCN)C(=O)N[C@@H](CCCCNC(=O)CCC(=O)O[C@H]1CC[C@@]2(C)C(=CC[C@H]3[C@@H]4CC[C@H]([C@H](C)CCCC(C)C)[C@@]4(C)CC[C@@H]32)C1)C(N)=O)C(C)C)[C@@H](C)CC)[C@@H](C)CC)C(C)C [Compound 42] (Ac-FDASIEEVNRRIEESLRRIEESDRRLEEVNAEAAAKK(Succinyl(4-O-cholesteryl))-NH2) | 3710 | 11.8 |
| CC[C@H](C)[C@H](NC(=O)[C@H](CO)NC(=O)[C@H](C)NC(=O)[C@H](CC(=O)O)NC(=O)[C@H](Cc1ccccc1)NC(=O)[C@H](CCC(=O)O)NC(=O)[C@H](CC(=O)O)NC(=O)[C@H](Cc1c[nH]c2ccccc12)NC(C)=O)C(=O)N[C@@H](CCC(=O)O)C(=O)N[C@@H](CCC(=O)O)C(=O)N[C@H](C(=O)N[C@@H](CC(N)=O)C(=O)N[C@@H](CCCNC(=N)N)C(=O)N[C@@H](CCCNC(=N)N)C(=O)N[C@H](C(=O)N[C@@H](CCC(=O)O)C(=O)N[C@@H](CCC(=O)O)C(=O)N[C@@H](CO)C(=O)N[C@@H](CC(C)C)C(=O)N[C@@H](CCCNC(=N)N)C(=O)N[C@@H](CCCNC(=N)N)C(=O)N[C@H](C(=O)N[C@@H](CCC(=O)O)C(=O)N[C@@H](CCC(=O)O)C(=O)N[C@@H](CO)C(=O)N[C@@H](CC(=O)O)C(=O)N[C@@H](CCCNC(=N)N)C(=O)N[C@@H](CCCNC(=N)N)C(=O)N[C@@H](CC(C)C)C(=O)N[C@@H](CCC(=O)O)C(=O)N[C@@H](CCC(=O)O)C(=O)N[C@H](C(=O)N[C@@H](CCC(=O)O)C(=O)N[C@@H](C)C(=O)N[C@@H](C)C(=O)N[C@@H](C)C(=O)N[C@@H](CCCCN)C(=O)N[C@@H](CCCCNC(=O)CCC(=O)O[C@H]1CC[C@@]2(C)C(=CC[C@H]3[C@@H]4CC[C@H]([C@H](C)CCCC(C)C)[C@@]4(C)CC[C@@H]32)C1)C(N)=O)C(C)C)[C@@H](C)CC)[C@@H](C)CC)C(C)C [Compound 43] (Ac-WDEFDASIEEVNRRIEESLRRIEESDRRLEEVEAAAKK(Succinyl(4-O-cholesteryl))-NH2) | 12200 | 18.3 |
| CC[C@H](C)[C@H](NC(=O)[C@H](CCCCN)NC(=O)[C@H](CCCCN)NC(=O)[C@H](CC(C)C)NC(=O)[C@H](CO)NC(=O)[C@H](CCC(=O)O)NC(=O)[C@H](CCC(=O)O)NC(=O)[C@@H](NC(=O)[C@H](CCCCN)NC(=O)[C@H](CCCCN)NC(=O)[C@H](CC(N)=O)NC(=O)[C@@H](NC(=O)[C@H](CCC(=O)O)NC(=O)[C@H](CCC(=O)O)NC(=O)[C@@H](NC(=O)[C@H](CCCCN)NC(=O)[C@H](CCCCN)NC(=O)[C@H](CC(=O)O)NC(=O)[C@H](Cc1ccccc1)NC(=O)[C@H](CCC(=O)O)NC(=O)[C@H](CC(=O)O)NC(=O)[C@H](Cc1c[nH]c2ccccc12)NC(C)=O)[C@@H](C)CC)C(C)C)[C@@H](C)CC)C(=O)N[C@@H](CCC(=O)O)C(=O)N[C@@H](CCC(=O)O)C(=O)N[C@@H](CO)C(=O)N[C@@H](CC(=O)O)C(=O)N[C@@H](CCCCN)C(=O)N[C@@H](CCCCN)C(=O)N[C@@H](CC(C)C)C(=O)N[C@@H](Cc1c[nH]cn1)C(=O)N[C@@H](CC(N)=O)C(=O)N[C@H](C(=O)N[C@@H](CCC(=O)O)C(=O)N[C@@H](C)C(=O)N[C@@H](C)C(=O)N[C@@H](C)C(=O)N[C@@H](CCCCN)C(=O)N[C@@H](CCCCNC(=O)CCC(=O)O[C@H]1CC[C@@]2(C)C(=CC[C@H]3[C@@H]4CC[C@H]([C@H](C)CCCC(C)C)[C@@]4(C)CC[C@@H]32)C1)C(N)=O)C(C)C [Compound 44] (Ac-WDEFDKKIEEVNKKIEESLKKIEESDKKLHNVEAAAKK(Succinyl(4-O-cholesteryl))-NH2) | 26500 | 12.4 |
